# Tests used:
# LNCaP cells = assay: Steroid metabolism (flux from [3H]-DHEA to AD), HPLC; type: cell-based, human; conditions: 100 nM, after 48 hours
# Procedure: (§1) Steroid metabolism experiments were performed 12 hours after seeding cells by treatment with 1 mL serum-free medium containing [^3H]-labeled DHEA (100 nM, 300,000-600,000 cpm; PerkinElmer). Aliquots of medium were collected for up to 48 hours, treated with β-glucuronidase (1000 units; Sigma-Aldrich) at 65° C. for 4 hours. Deconjugated steroids were extracted, evaporated under nitrogen stream, dissolved in 50% methanol, injected on a Breeze 1525 system equipped with model 717 plus autoinjector (Waters Corp.) and steroid metabolites were separated on a Luna 150×3 mm, […] C18 reverse-phase column (Phenomenex). The column effluent was mixed with Liquiscint scintillation cocktail (National Diagnostics) and analyzed by a β-RAM model 3 in-line radioactivity detector (IN/US Systems). Steroid metabolism experiments with transient enzyme expression were performed with pCMV5-HSD3B1 (367N and 367T) constructs 24 hours after transfection and 12 hours after treatment with 25 μM cycloheximide (CHX). […]
# (§2) Cells (300,000-400,000 cells per well) were plated in 12-well plates coated with poly-L-ornithine. […] The column effluent was mixed with Liquiscint scintillation cocktail (National Diagnostics, Atlanta, Ga.) and analyzed by a β-RAM model 3 in-line radioactivity detector (LabLogic, Brandon, Fla.). […]
# LAPC4 cells = assay: as above; type: cell-based, human; conditions: LAPC4, 100 nM, after 48 hours
# Procedure: as §1, §2
# 3βHSD1(367T) = biological target: T1, 3βHSD1(367T) (Homo sapiens, UniProt P14060); assay: Enzyme kinetics of DHEA metabolism, recombinant enzyme in yeast microsomes; type: biochemical; conditions: Michaelis-Menten plot
# T1 construct: made in house; host or cells: Saccharomyces cerevisiae W303B (microsomes)
# T1 sequence (P14060 2-373): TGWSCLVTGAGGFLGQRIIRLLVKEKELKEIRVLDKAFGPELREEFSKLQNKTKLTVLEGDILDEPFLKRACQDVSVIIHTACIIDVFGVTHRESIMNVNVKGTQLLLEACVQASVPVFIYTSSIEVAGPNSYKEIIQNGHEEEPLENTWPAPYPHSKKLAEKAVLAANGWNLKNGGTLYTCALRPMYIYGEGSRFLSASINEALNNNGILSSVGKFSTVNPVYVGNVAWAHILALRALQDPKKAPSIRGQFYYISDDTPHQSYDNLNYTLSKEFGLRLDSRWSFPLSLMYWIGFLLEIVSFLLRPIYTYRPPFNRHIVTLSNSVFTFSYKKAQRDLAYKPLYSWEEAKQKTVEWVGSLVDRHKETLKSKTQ
# Procedure: (§3) Recombinant human 3βHSD1 was expressed in S cerevisciae strain W303B using yeast vector V10-3βHSD1 for wild-type and 367T proteins, and microsomes were prepared as described. Li et al., 2012. Incubations containing [^3H]-DHEA (0.5-40 μM, 100,000 cpm) and 25 μg microsomal protein in 0.25 ml of 50 mM potassium phosphate (pH 7.4) were pre-incubated at 37° C. for 1 min before initiating the reaction with NAD (0.1 mM). After 20 min at 37° C., the steroids were extracted with 1 ml dichloromethane, concentrated, and resolved on an Agilent 1260 HPLC equipped with a Kinetex 2.1×100 mm, 2.6 μm C18 reverse-phase column (Phenomenex, Torrance, Calif.) using methanol-water gradients at 0.4 ml/min. The column effluent was analyzed with a β-RAM4 (LabLogic) in-line scintillation counter and Bio-SafeII cocktail (Research Products International). Means of triplicate determinations were plotted as v versus [S], and kinetic constants Km and Vmax were obtained by fitting the data to the Michaelis-Menten equation using Origin version 7.5.
# 3βHSD1(367N) = biological target: T2, 3βHSD1(367N) (Homo sapiens, UniProt P14060, T367N); assay: as above; type: biochemical; conditions: Michaelis-Menten plot
# T2 construct: made in house; host or cells: Saccharomyces cerevisiae W303B (microsomes)
# T2 sequence (P14060 1-373 T367N): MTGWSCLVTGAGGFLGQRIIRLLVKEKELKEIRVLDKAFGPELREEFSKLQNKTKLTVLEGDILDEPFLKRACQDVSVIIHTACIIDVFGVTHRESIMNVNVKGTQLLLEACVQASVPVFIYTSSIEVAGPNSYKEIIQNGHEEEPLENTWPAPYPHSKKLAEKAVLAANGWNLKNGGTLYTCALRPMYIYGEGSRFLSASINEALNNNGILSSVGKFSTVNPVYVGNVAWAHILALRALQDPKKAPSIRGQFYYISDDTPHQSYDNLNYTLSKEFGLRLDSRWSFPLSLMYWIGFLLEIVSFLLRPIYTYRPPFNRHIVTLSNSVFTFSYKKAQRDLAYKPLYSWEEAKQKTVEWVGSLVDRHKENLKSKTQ
# Procedure: as §3
# [1] = tested on: PSA and TMPRSS2 expression; assay: AR-regulated gene expression by qPCR in LAPC4; type: cell-based, human; conditions: LAPC4, qPCR normalized to RPLP0 and vehicle
# Procedure: (§4) Gene expression. To accurately quantitate each gene transcript, qPCR was performed as previously described. Chang et al., 2011. Briefly, the iTaq SYBR Green Supermix with ROX kit (Bio-Rad, Hercules, Calif.) was applied for the thermocycling reaction in an ABI-7500 Real-Time PCR machine (Applied Biosystems, Foster City, Calif.). Total RNA (1 μg) collected by RNeasy kit (QIAGEN) was used in a RT reaction with the iScript cDNA synthesis kit (Bio-Rad). The qPCR analysis was carried out in triplicate with the following primer sets: HSD3B1 (Forward: 5′-[…]-3′ (SEQ ID NO: 11); Reverse: 5′-[…]-3′ (SEQ ID NO: 12)), PSA (Forward: 5′-[…]-3′ (SEQ ID NO: 13); Reverse: 5′-[…]-3′ (SEQ ID NO: 14)), TMPRSS2 (Forward: 5′-[…]-3′ (SEQ ID NO: 15); Reverse: 5′-[…]-3′ (SEQ ID NO: 16)), the housekeeping gene large ribosomal protein P0 (RPLP0) (Forward: 5′-CGAGGGCACCTGGAAAAC-3′ (SEQ ID NO: 17); Reverse: 5′-CACATTCCCCCGGATATGA-3′ (SEQ ID NO: 18)) and GAPDH (Forward: 5′-[…]-3′ (SEQ ID NO: 19); Reverse: 5′-[…]-3′ (SEQ ID NO: 20)). Each mRNA transcript was quantitated by normalizing the sample values to RPLP0 or GAPDH and to non-silencing control cells (for knockdown) or to vehicle treated cells (for steroid treated cells). All gene expression studies were repeated in independent experiments.
# [2] = tested on: PSA and TMPRSS2 expression; assay: AR-regulated gene expression by qPCR in LNCaP; type: cell-based, human; conditions: qPCR normalized to RPLP0 and vehicle
# Procedure: as §4
# 3βHSD = conditions: cited from earlier work
Structure (SMILES),[3H]-DHEA metabolized by 3βHSD enzymatic activity to AD (LNCaP cells) [%],[3H]-DHEA metabolized by 3βHSD enzymatic activity to AD (LAPC4 cells),Km (3βHSD1(367T)) [µM],Km (3βHSD1(367N)) [µM],PSA and TMPRSS2 expression [1],PSA and TMPRSS2 expression [2],inhibition of 3βHSD (3βHSD)
"C[C@]12CC[C@H](O)CC1=CC[C@@H]1[C@@H]2CC[C@]2(C)C(=O)CC[C@@H]12 [DHEA, dehydroepiandrosterone]",> 90,approximately 10%,7,32,absence of DHEA concentration-dependent increases in AR-regulated PSA and TMPRSS2,induces PSA and TMPRSS2 expression in a concentration-dependent manner,–
"CC(=O)O[C@H]1CC[C@@]2(C)C(=CC[C@@H]3[C@@H]2CC[C@]2(C)C(c4cccnc4)=CC[C@@H]32)C1 [abiraterone, abiraterone acetate]",–,–,–,–,–,–,weakly inhibits

# Source: patent US10533228B2, “3.beta-hydroxysteroid dehydrogenase in steroid dependent disease” (THE CLEVELAND CLINIC FOUNDATION, priority 2013, dated 2020)
